Reference: patent US20070197585A1, “Use of cysteinyl leukotriene 2 receptor antagonists” (priority 2004, published 2007)

Key:
CysLT2 receptor = molecular target: T1, CysLT2 receptor (Homo sapiens, UniProt Q9NS75); experiment: LTD4-induced calcium flux (calcium mobilization, FLIPR) in CysLT2 receptor-transfected cells; format: cell-based; conditions: antagonist dose-response curve, read-out: IC50 of blocking LTD4-induced calcium flux, CysLT2 receptor
T1 construct: expressed in transfected cells
T1 sequence (Q9NS75 1-346): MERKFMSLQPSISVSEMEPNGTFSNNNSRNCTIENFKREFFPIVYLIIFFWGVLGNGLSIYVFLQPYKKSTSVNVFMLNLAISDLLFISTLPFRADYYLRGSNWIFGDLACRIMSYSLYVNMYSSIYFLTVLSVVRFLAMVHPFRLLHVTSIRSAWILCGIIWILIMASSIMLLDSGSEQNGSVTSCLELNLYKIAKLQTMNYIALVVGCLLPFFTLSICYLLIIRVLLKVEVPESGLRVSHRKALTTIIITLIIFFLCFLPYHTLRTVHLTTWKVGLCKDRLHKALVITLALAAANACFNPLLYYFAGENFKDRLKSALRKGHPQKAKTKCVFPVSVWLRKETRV
Method: (§1) Compounds may be screened for effects on LTD4 induced calcium mobilization in cells transfected with CysLT2 receptor, according to the following calcium mobilization assay.
(§2) Human embryonic kidney (HEK293T) cells transiently transfected with the CysLT2 receptor using LipofectAMINE™2000 reagent (Life Technologies) or Chinese hamster ovary (CHO-NFAT) cells stably transfected with the CysLT2 type receptor are plated into Poly-D-Lysine treated black-wall microplates (Biocoat™) at 5×10^4 cells per well. Cells are maintained for approximately 24 hours at 37° C. and 5% CO2. After 24 hours, cells are loaded with Fluo4 calcium indicator dye (Molecular Probes) in the presence of 2.5 mM probenecid for one hour. After washing, the cells are treated with agonist, (10 nM LTD4, BioMol), and maximum fluorescence measured in a Molecular Devices Fluorometric Imaging Plate Reader (FLIPR). Compounds screened for antagonism are added five minutes prior to addition of agonist.
(§3) Agonist and Standard Antagonist Functional Characterization on Human CysLT1 and CysLT2 Receptors

CysLT1 receptor = molecular target: T2, CysLT1 receptor (Homo sapiens, UniProt Q9Y271); experiment: LTD4-induced calcium flux (calcium mobilization, FLIPR) in CysLT1 receptor transfected HEK293T cells; format: cell-based; conditions: antagonist dose-response curve, read-out: IC50 of blocking LTD4-induced calcium flux, CysLT1 receptor
T2 construct: expressed in transfected cells; host or cells: HEK293T
T2 sequence (Q9Y271 1-337): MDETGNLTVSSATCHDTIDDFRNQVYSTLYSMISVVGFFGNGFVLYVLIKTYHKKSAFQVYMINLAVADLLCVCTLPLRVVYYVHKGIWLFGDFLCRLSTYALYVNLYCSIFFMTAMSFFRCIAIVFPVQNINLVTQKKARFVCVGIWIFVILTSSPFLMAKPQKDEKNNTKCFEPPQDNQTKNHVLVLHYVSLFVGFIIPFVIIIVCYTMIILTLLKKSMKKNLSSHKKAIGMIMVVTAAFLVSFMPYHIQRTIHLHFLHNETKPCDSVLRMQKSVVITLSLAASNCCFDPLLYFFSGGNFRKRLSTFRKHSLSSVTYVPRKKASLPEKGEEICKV
Method: as §1, §2
Compounds of interest from the CysLT2 receptor screen may also be assayed in a CysLT1 receptor counter screen. Compounds of interest may be assayed using the same protocol described above in cells transfected with the CysLT1 receptor.
as §3

melting point: 88 to 91 °C
IC50 (CysLT2 receptor): < 10 µM
IC50 (CysLT1 receptor): < 10 µM
SMILES: CCCCCCCCCc1ccc(C(Sc2cccc(NC(=O)CC(=O)O)c2)C(=O)CCCC(=O)O)cc1 (stereo not drawn) [Compound (I), 6-({3-[(carboxyacetyl)amino]phenyl}thio)-6-(4-nonylphenyl)-5-oxohexanoic acid]
